Reference: patent publication US6410735B1, “1-(4-arylpiperazin-1-y1)-ω-[N-(α,ω-dicarboximido)]-alkanes useful as uro-selective α1-adrenoceptor blockers” (Ranbaxy Laboratories Limited, priority 1997, dated 2002)
pKi: −log10 of the molar value. Read-outs that look alike come from different tables or passages of the source.

Tests used:
α1A-adrenoceptor = target: T1, α1A-adrenoceptor (Rattus norvegicus, UniProt P43140); test: Receptor binding assay, [3H]prazosin, rat submaxillary membranes; details: for Ki: rat submaxillary membranes, 0.5 nM [3H]prazosin, read-out: RBA (Ki nM) α1A
T1 construct: from tissue; host or cells: rat submaxillary gland membranes
T1 sequence (P43140 1-466): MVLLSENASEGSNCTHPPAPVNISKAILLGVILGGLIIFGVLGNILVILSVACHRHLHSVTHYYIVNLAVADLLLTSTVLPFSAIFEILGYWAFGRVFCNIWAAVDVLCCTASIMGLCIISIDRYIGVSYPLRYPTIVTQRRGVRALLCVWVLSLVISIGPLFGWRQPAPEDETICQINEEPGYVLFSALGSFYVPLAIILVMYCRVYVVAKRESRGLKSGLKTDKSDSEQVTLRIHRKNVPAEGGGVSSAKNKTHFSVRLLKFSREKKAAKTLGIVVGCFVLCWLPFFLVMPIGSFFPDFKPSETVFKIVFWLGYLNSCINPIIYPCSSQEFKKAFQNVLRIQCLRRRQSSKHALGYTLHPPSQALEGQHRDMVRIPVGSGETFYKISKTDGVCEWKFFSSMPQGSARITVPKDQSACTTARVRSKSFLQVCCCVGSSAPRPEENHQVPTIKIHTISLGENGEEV
Description: (§1) Receptor binding assays, (RBA's) were performed for native α1-adrenoceptors. Rat submaxillary and rat liver membrane preparations were used to assess the affinity for α1A and α1B subtypes, respectively. Aliquots of membrane protein ([…]) were incubated in a final volume of […] assay buffer (50 mM Tris, 0.5 mM EDTA at pH 7.4) with 0.5 nM [^3H] prazosin for 60 mins at 28 ° C. Reaction was stopped by rapid filtration on Millipore filters. Filters were dried and bound radioactivity counted. Non-specific binding was determined in the presence of 0.3 mM prazosin.

α1B-adrenoceptor = target: T2, α1B-adrenoceptor (Rattus norvegicus, UniProt P15823); test: Receptor binding assay, [3H]prazosin, rat liver membranes; details: for Ki: rat liver membranes, 0.5 nM [3H]prazosin, read-out: RBA (Ki nM) α1B
T2 construct: from tissue; host or cells: rat liver membranes
T2 sequence (P15823 1-515): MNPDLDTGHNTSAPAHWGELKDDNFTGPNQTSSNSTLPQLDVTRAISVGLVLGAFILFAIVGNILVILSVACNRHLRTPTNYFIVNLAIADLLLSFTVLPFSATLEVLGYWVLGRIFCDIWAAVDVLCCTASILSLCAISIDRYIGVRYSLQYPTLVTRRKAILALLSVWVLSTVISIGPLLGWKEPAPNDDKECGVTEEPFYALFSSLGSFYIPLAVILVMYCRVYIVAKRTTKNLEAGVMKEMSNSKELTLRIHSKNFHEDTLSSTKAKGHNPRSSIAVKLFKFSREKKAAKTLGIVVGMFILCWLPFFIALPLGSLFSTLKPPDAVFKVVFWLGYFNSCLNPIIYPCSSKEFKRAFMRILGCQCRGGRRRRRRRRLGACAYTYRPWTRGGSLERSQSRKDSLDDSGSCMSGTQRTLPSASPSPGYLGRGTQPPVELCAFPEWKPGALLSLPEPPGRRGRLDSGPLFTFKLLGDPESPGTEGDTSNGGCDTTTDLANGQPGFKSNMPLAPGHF
Description: as §1

[1] = target: T3, α1A-adrenoceptor (prostate) (Rattus norvegicus, UniProt P43140); test: In vitro functional assay, phenylephrine-induced contraction of isolated prostate; type: cell-based
T3 construct: Aorta, prostate and spleen tissues were isolated from urethane anaesthetized (1.5 gm/kg) male wistar rats; from tissue; host or cells: isolated prostate of male Wistar rats
T3 sequence (P43140 1-466): T1 sequence (P43140 1-466)
Description: (§2) In order to study selectivity of action of the present compounds towards different α-adrenoceptor subtypes, the ability of these compounds to antagonize α1-adrenoceptor agonist induced contractile response of aorta (α1D), prostate (α1A) and spleen (α1B) was studied. Aorta, prostate and spleen tissues were isolated from urethane anaesthetized (1.5 gm/kg) male wistar rats. Isolated tissues were mounted in organ bath containing Krebs Henseleit buffer of the following composition (mM): NaCl 118; KCl 4.7; CaCl2 2.5; MgSO4·H2O 1.2; NaHCO3 25; KH2PO4 1.2; glucose 11.5. Buffer was maintained at 37° C. and aerated with a mixture of 95% O2 and 5% CO2. A resting tension of 2 g (aorta) or 1 g (spleen and prostate) was applied to tissues. Contractile response was monitored using a force displacement transducer and recorded on chart recorders. Tissues were allowed to equilibrate for 2 hours. At the end of equilibration period, concentration response curves to norepinephrine (aorta) and phenylephrine (spleen and prostate) were obtained in the absence and presence of the tested compound (at concentrations of 0.1, 1 and 10 μM). Antagonist affinity was calculated and expressed as PKB values in Table 1.

[2] = target: T4, α1B-adrenoceptor (spleen) (Rattus norvegicus, UniProt P15823); test: In vitro functional assay, phenylephrine-induced contraction of isolated spleen; type: cell-based
T4 construct: Aorta, prostate and spleen tissues were isolated from urethane anaesthetized (1.5 gm/kg) male wistar rats; from tissue; host or cells: isolated spleen of male Wistar rats
T4 sequence (P15823 1-515): T2 sequence (P15823 1-515)
Description: as §2

α1D-adrenoceptor (aorta) = target: T5, α1D-adrenoceptor (aorta) (Rattus norvegicus, UniProt P23944); test: In vitro functional assay, norepinephrine-induced contraction of isolated aorta; type: cell-based
T5 construct: Aorta, prostate and spleen tissues were isolated from urethane anaesthetized (1.5 gm/kg) male wistar rats; from tissue; host or cells: isolated aorta of male Wistar rats
T5 sequence (P23944 1-561): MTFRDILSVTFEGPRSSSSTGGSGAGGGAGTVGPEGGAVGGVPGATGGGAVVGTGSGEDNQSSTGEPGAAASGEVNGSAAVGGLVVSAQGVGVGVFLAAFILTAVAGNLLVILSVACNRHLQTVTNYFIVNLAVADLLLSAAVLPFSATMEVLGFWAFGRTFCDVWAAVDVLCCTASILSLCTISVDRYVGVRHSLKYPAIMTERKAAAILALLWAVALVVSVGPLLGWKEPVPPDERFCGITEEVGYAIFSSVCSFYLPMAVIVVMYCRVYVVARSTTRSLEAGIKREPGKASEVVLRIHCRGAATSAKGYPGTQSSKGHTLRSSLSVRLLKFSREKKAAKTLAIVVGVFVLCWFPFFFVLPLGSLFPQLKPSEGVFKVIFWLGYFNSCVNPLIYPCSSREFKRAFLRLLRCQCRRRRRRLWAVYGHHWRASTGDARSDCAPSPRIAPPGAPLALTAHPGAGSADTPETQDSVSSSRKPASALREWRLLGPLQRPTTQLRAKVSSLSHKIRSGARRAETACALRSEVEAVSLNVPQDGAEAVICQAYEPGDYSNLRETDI
Description: as §2

[3] = rat aorta, norepinephrine, read-out: In Vitro Functional Assay (pKB) α1D (converted)
[4] = rat prostate, phenylephrine, read-out: In Vitro Functional Assay (pKB) α1A (converted)
[5] = rat spleen, phenylephrine, read-out: In Vitro Functional Assay (pKB) α1B (converted)

SMILES | Ki (α1A-adrenoceptor) | Ki (α1B-adrenoceptor) | Kb [1] | Kb [2] | Kb (α1D-adrenoceptor (aorta); [3]) | Kb [1, 4] | Kb [2, 5] | Kb (α1D-adrenoceptor (aorta)) | pKi (α1A-adrenoceptor) | pKi (α1B-adrenoceptor)
O=C1CCC(=O)N1CCCN1CCN(c2ccc(F)cc2)CC1 [Compound 1, 1-[4-(4-Fluorophenyl)piperazin-1-yl]-3-(2,5-dioxopyrrolidin-1-yl)propane] | > 2500 nM | 1000 nM | 79.4 nM | 100 nM | 158 nM |  |  |  |  | 
O=C1CCC(=O)N1CCCN1CCN(c2cccc(C(F)(F)F)c2)CC1 [Compound 3, 1-[4-(3-Trifluoromethylphenyl)piperazin-1-yl]-3-(2,5-dioxopyrrolidin-1-yl)propane] | 1500 nM | 1000 nM |  | 63.1 nM | 10000 nM |  |  |  |  | 
O=C1CCC(=O)N1CCCN1CCN(c2ccccn2)CC1 [Compound 4, 1-[4-(2-Pyridyl)piperazin-1-yl]-3-(2,5-dioxopyrrolidin-1-yl)propane] | 1660 nM | 2100 nM |  |  | 2510 nM |  |  |  |  | 
O=C1CCC(=O)N1CCCN1CCN(c2cccc(Cl)c2)CC1 [Compound 5, 1-[4-(3-Chlorophenyl)piperazin-1-yl]-3-(2,5-dioxopyrrolidin-1-yl)propane] | 106 nM | 175 nM |  |  |  | 5010 nM | 5010 nM | 100 nM |  | 
O=C1CCC(=O)N1CCCN1CCN(c2ncccn2)CC1 [Compound 6, 1-[4-(2-Pyrimidyl)piperazin-1-yl]-3-(2,5-dioxopyrrolidin-1-yl)propane] | 1140 nM | > 2500 nM |  |  | 316 nM | 20000 nM | 5010 nM |  |  | 
Cc1ccc(N2CCN(CCCN3C(=O)CCC3=O)CC2)cc1C [Compound 7, 1-[4-(3,4-Dimethylphenyl)piperazin-1-yl]-3-(2,5-dioxopyrrolidin-1-yl)propane] | 450 nM | 282 nM |  |  | 316 nM | 398 nM | 200 nM |  |  | 
O=C1CCC(=O)N1CCCN1CCN(c2ccccc2)CC1 [Compound 8, 1-[4-(Phenylpiperazin)-1-yl]-3-(2,5-dioxopyrrolidin-1-yl)propane] |  | 590 nM | 31.6 nM |  | 251 nM |  |  |  | 7.24 | 
COc1ccccc1N1CCN(CCN2C(=O)CCC2=O)CC1 [Compound 10, 1-[4-(2-Methoxyphenyl)piperazin-1-yl]-2-(2,5-dioxopyrrolidin-1-yl)ethane] | 1600 nM | 2350 nM |  |  | 126 nM | 126 nM | 200 nM |  |  | 
COc1cccc(N2CCN(CCCN3C(=O)CCC3=O)CC2)c1 [Compound 11, 1-[4-(3-Methoxyphenyl)piperazin-1-yl]-3-(2,5-dioxopyrrolidin-1-yl)propane] | > 2500 nM | > 2500 nM |  |  |  |  |  |  |  | 
COc1ccc(N2CCN(CCCN3C(=O)CCC3=O)CC2)cc1 [Compound 12, 1-[4-(4-Methoxyphenyl)piperazin-1yl]-3-(2,5-dioxopyrrolidin-1yl)propane] | > 2500 nM | > 2500 nM |  |  |  |  |  |  |  | 
O=C1CCCC(=O)N1CCCN1CCN(c2ccc(F)cc2)CC1 [Compound 14, 1-[4-(4-Fluorophenyl)piperazin-1-yl]-3-(2,6-dioxopiperidin-1yl)propane] | 67 nM | 192 nM |  |  | 79.4 nM | 3.98 nM | 39.8 nM |  |  | 
O=C1CCCC(=O)N1CCCN1CCN(c2ccc(Cl)cc2)CC1 [Compound 15, 1-[4-(4-Chlorophenyl)piperazin-1-yl]-3-(2,6-dioxopiperidin-1yl)propane] | 520 nM | 201 nM |  |  | 631 nM | 200 nM | 1000 nM |  |  | 
O=C1CCCC(=O)N1CCCN1CCN(c2cccc(C(F)(F)F)c2)CC1 [Compound 16, 1-[4-(3-Trifluoromethylphenyl)piperazin-1-yl]-3-(2,6-dioxopiperidin-1-yl)propane] | 345 nM | 765 nM |  |  | 126 nM | 316 nM |  |  |  | 
O=C1CCCC(=O)N1CCCN1CCN(c2ccccn2)CC1 [Compound 19, 1-[4-(2-Pyridyl)piperazin-1-yl)-3-(2,6-dioxopiperidin-1-yl)propane] | 164 nM | > 2500 nM |  |  | 200 nM | 398 nM |  |  |  | 
O=C1CCCC(=O)N1CCCN1CCN(c2cccc(Cl)c2)CC1 [Compound 20, 1-[4-(3-Chlorophenyl)piperazin-1-yl]-3-(2,6-dioxopiperidin-1-yl)propane] | 22 nM | 113 nM |  |  | 25.1 nM | 31.6 nM |  |  |  | 
O=C1CCCC(=O)N1CCCN1CCN(c2ncccn2)CC1 [Compound 22, 1-[4-(2-Pyrimidyl)piperazin-1-yl]-3-(2,6-dioxopiperidin-1-yl)propane] | > 2500 nM | > 2500 nM |  |  | 100 nM | 398 nM |  |  |  | 
COc1cccc(N2CCN(CCCN3C(=O)CCCC3=O)CC2)c1 [Compound 23, 1-[4-(3-Methoxyphenyl)piperazin-1yl]-3-(2,6-dioxopiperidin-1-yl)propane] | 2170 nM | 940 nM |  |  |  |  |  |  |  | 
COc1ccc(N2CCN(CCCN3C(=O)CCCC3=O)CC2)cc1 [Compound 24, 1-[4-(4-Methoxyphenyl)piperazin-1-yl]-3-(2,6-dioxopiperidin-1-yl)propane] |  |  |  |  |  |  |  |  | > 5.60 | < 5.60
COc1ccccc1N1CCN(CCCCN2C(=O)CCCC2=O)CC1 [Compound 25, 1-[4-(2-Methoxyphenyl)piperazin-1yl]-4-(2,6-dioxopiperidin-1yl)butane] | 1.6 nM | 7.5 nM |  |  |  |  |  |  |  | 
COc1ccccc1N1CCN(CCCN2C(=O)CC(c3ccccc3)C2=O)CC1 (stereo not shown) [Compound 26, 1-[4-(2-Methoxyphenyl)piperazin-1yl]-3-[2,5-dioxo-3-phenyl-pyrolidin-1-yl]propane] | 30 nM | 600 nM |  |  |  |  |  |  |  | 
O=C1CCC(=O)N1CCCN1CCC(c2ccccc2)CC1 [Compound 27, 1-[4-(Phenyl)piperidin-1-yl]-3-[2,5-dioxopyrolidin-1-yl]propane] | 1300 nM | 2000 nM |  |  |  |  |  |  |  | 
